{
  "source": "patent US20230210834A1",
  "about": "“RNA METHYLTRANSFERASE INHIBITOR, SCREENING METHOD THEREFOR, ANTI-CANCER AGENT EFFICACY ASSESSMENT MARKER, AND KIT FOR EFFECTIVELY PREDICTING FTSJ1 INHIBITOR” (National University Corporation Okayama University, priority 2019, published 2023)",
  "key": {"MGG8": {"system": "MGG8", "experiment": "Sphere-forming ability (anchorage-independent cell proliferation), MGG8", "assay_type": "cell-based, human", "details": "MGG8 (high FTSJ1 expression), 1 week, 0-5000 nM; FIG. 4B", "procedure": "To verify whether the expression analysis of these gene clusters contributes to predicting the anti-cancer effect by the FTSJ1 inhibitors, the FTSJ1 gene was actually used as an example to analyze the anti-cancer effect of the FTSJ1 inhibitor PVZF2001 on human malignant brain tumor cell lines. Human malignant brain tumor cell lines MGG4, MGG8, MGG18, MGG23 were treated with stem cell medium (Neurobasal, B-27, N-2, 20 ng/mL EGF, 20 ng/mL bFGF) containing different concentrations (0 nm, 200 nM, 500 nM, 1000 NM, 2000 NM, 5000 nM) of PVZF2001 for 1 week, and anchorage-independent cell proliferation was evaluated based on sphere-forming ability."}, "[1]": {"system": "39 types of human cancer cell lines (JFCR39)", "experiment": "Cell line panel (JFCR39) cell proliferation, sulforhodamine B, GI50", "assay_type": "cell-based", "procedure": "In order to extract genes that prescribe the sensitivity and resistance with respect to the FTSJ1 inhibitors, PVZF2001 was used to proceed with the analysis with a cell line panel (JFCR39). […] The GI50 value is defined, based on the number of cells before drug exposure, as a concentration at which the increase is inhibited by 50% by drug treatment, with the increase in a sample cultured for 48 hours without drug treatment (negative control) taken as 100%. In order to extract the target gene clusters, a COMPARE analysis was first performed using gene expression and the Log GI50 values in all of the cell lines. The gene clusters of SEQ ID NOs: 14 to 28 were then identified as FTSJ1 inhibitor resistance-related genetic markers, while the gene clusters of SEQ ID NOs: 34 to 47 were identified as FTSJ1 inhibitor sensitive-related genetic markers. […] The gene clusters of SEQ ID NOs: 29 to 33 were then identified as FTSJ1 inhibitor resistance-related genetic markers, while the gene clusters of SEQ ID NOs: 48 to 56 were identified as FTSJ1 inhibitor sensitive-related genetic markers. Using these genetic markers, a database of gene expression information (TCGA) obtained from patient samples was analyzed. […] That is, the results reveal that the FTSJ1 gene expression level itself also represents sensitivity and resistance with respect to the FTSJ1 inhibitors (SEQ ID NO: 57)."}, "[2]": {"system": "polyglutamine luciferase reporter", "experiment": "Screening: polyglutamine luciferase reporter assay in NUGC3 cells (luminescence % of DMSO)", "assay_type": "cell-based, human", "details": "NUGC3 cells, luminescence relative to DMSO"}},
  "data": [
    {"smiles": "CC(C)c1cc(C(C)C)c(S(=O)(=O)CC2CC(C)(C)CC(C)(C)C2)c(C(C)C)c1", "note": "[PVZF2001]", "values": [
      {"measurement": "anchorage-independent cell proliferation (sphere-forming ability)", "setting": "MGG8", "result": "showed proliferation inhibition at low concentrations"},
      {"measurement": "sensitivity / resistance of cell line (Log GI50, FIG. 4A)", "setting": "[1]; DMS114, 48 hours", "result": "high sensitivity"},
      {"measurement": "sensitivity / resistance of cell line (Log GI50, FIG. 4A)", "setting": "[1]; NCI-H23, 48 hours", "result": "high resistance"},
      {"measurement": "sensitivity / resistance of cell line (Log GI50, FIG. 4A)", "setting": "[1]; NCI-H522, 48 hours", "result": "high sensitivity"},
      {"measurement": "sensitivity / resistance of cell line (Log GI50, FIG. 4A)", "setting": "[1]; SF-539, 48 hours", "result": "high sensitivity"},
      {"measurement": "sensitivity / resistance of cell line (Log GI50, FIG. 4A)", "setting": "[1]; SNB-75, 48 hours", "result": "high sensitivity"},
      {"measurement": "sensitivity / resistance of cell line (Log GI50, FIG. 4A)", "setting": "[1]; SNB-78, 48 hours", "result": "high resistance"},
      {"measurement": "sensitivity / resistance of cell line (Log GI50, FIG. 4A)", "setting": "[1]; U251, 48 hours", "result": "high sensitivity"},
      {"measurement": "Polyglutamine", "setting": "[2]; 5 μM", "result": 41.05, "unit": "%"},
      {"measurement": "Polyglutamine", "setting": "[2]; 10 μM", "result": 19.01, "unit": "%"}
    ]}
  ]
}
